Experimental findings from patent US20060223729A1, “Photodynamic inactivation of bacterial spores” (priority 2003, published 2006) are described below.

For one test, the system named is B. thuringiensis spores. The experiment in a line: Photodynamic inactivation (PDI) of B. thuringiensis spores, colony-forming units. The following applies: 100 μM, 1 hour, 100 mW/cm^2 appropriate wavelength light, 0 to 32 J/cm^2 (FIG. 9, FIG. 10). It counts as cell-based, B. thuringiensis (ATCC 33740). The method, then:
(§1) The bacteria studied in the following examples were B. atrophaeus (ATCC 9372), B. cereus (ATCC14579), B. thuringiensis (ATCC 33740) and B. subtilis (ATCC 6051). Growing bacterial cells were cultivated in brain-heart infusion (BHI) broth at 37° C. Aliquots of the suspension (10^8/mL) were stored at −80° C. and then used for the experiments.
(§2) For initial experiments spores of B. atrophaeus and B. cereus were purchased from SGM Biotech, Inc (Bozeman, Mont., USA). For subsequent experiments spores of all species were prepared in the laboratory using sporulation broth for B. atrophaeus and B. subtilis, or sporulation agar (Caipo et al., 2002; Nicholson & Setlow, 1990) for B. cereus and B. thuringiensis. The sporulation medium consisted of 16.0 g nutrient broth (Difco), 2.0 g KCl, 0.5 g MgSO4; 17 g of agar. The pH of the medium was adjusted to 7, then autoclaved and cooled. After cooling 1 ml of 1M […], 1 ml of 0.1 M MnCl2.4H2O, 1 ml of 1 mM FeSO4 and 2 ml 50% glucose were added. For spore purification the mixture of spores and cells was centrifuged at 1300 g for 20 min, washed with SX volume 1 M KCl/0.5 M NaCl, rinsed with sterile deionized water, then washed with 1 M NaCl, and rinsed with sterile deionized water again. Lysozyme (50 μg/mL) was added in the presence of buffer (5× volume Tris Cl, 0.05 M, pH 7 2), and incubated with constant stirring at 4° C. overnight. Lysozyme was removed by centrifuging 8 times (at 1300 g) and washing with sterile deionized water. Spores were frozen with 10% glycerol and stored until use. To avoid germination spores were used immediately after defrosting.
(§3) As photosensitizers Rose Bengal, Toluidine Blue O (TBO), Methylene Blue, New Methylene Blue N zinc chloride double salt (NMB), 1,9-Dimethylmethylene Blue Chloride (Sigma-Aldrich—DMMB), Azure A, Azure B, Azure C, methylene violet 3RAX, safranine O, and malachite green, were used. Stock solutions were prepared in water and stored at 4° C. in the dark before use. The concentrations of stock solution were 2 mM.
(§4) When Rose Bengal was used, irradiation was performed with an argon laser at 514 nm. A diode laser with wavelength 670 nm was used for experiments with Methylene Blue and 1,9-Dimethylmethylene Blue Chloride. Diode laser with wavelength 635 nm was used for Toluidine Blue O and New Methylene Blue N. For other dyes either a turnable argon ion pumped dye laser or a 514 nm argon ion laser was used.
(§5) Suspensions of spores or bacteria (10^8/mL, 10^7/mL, 10^6/mL) were incubated with photosensitizers in the dark at room temperature. Incubation time was ranged from 1 min to 24 h and the photosensitizer concentrations varied form 10 μM to 1 mM. The cell suspensions were centrifuged at 20800 g and then washed several times with sterile PBS. The bacterial suspensions were placed on two well (concavities hanging drop) slides (Fisher Scientific) and irradiated with appropriate laser at room temperature. Fluences ranged from 0 to 300 J/cm^2. Fluence rates varied from 0 to 500 mW/cm^2. During irradiation aliquots of 20 μL were taken to determine the colony-forming units. The contents of the wells were mixed before sampling. The aliquots were serially diluted 10-fold in PBS to give dilutions of 10^−1-10^−6 times the original concentrations and were streaked horizontally on square BHI agar plates as described by (Jett et al., 1997). Plates were incubated at 37° C. overnight.
(§6) Two types of control conditions were used: irradiation in the absence of photosensitizers and incubation with photosensitizers in the dark.

The subject of another test is B. cereus spores. The experiment in a line: Photodynamic inactivation (PDI) of B. cereus spores, colony-forming units. It counts as cell-based, B. cereus (ATCC14579). The settings on record: for photodynamic killing of spores: 100 mW/cm^2 appropriate wavelength light, 0 to 32 J/cm^2 (FIG. 5, FIG. 8). The method, then: as §1, §2, §3, §4, §5, §6
The test system of the next test is B. subtilis spores. Put plainly: Photodynamic inactivation (PDI) of B. subtilis spores, colony-forming units. Type of test: cell-based, B. subtilis (ATCC 6051). The following applies: needs ten times the dye and six times the light of B. cereus and B. thuringiensis; 100 mW/cm^2 635-nm light (FIG. 3). The method, then: as §1
as §2, with “Lysozyme was removed by centrifuging 8 times (at 1300 g) and washing with sterile deionized water. Spores were frozen with 10% glycerol and stored until use. To avoid germination spores were used immediately after defrosting.” left out

Test [1] deals with B. subtilis vegetative cells. The experiment in a line: Photoinactivation of B. subtilis vegetative cells. It counts as cell-based, B. subtilis (ATCC 6051). The settings on record: 10(7)/mL, 3 hours at 37° C., 100 mW/cm^2 635-nm light (FIG. 13). On the procedure: as §1
as §5, with “overnight. […]” for “overnight.”

Test [2] concerns B. cereus vegetative cells. Put plainly: Photoinactivation of B. cereus vegetative cells. It counts as cell-based, B. cereus (ATCC14579). The settings on record: 10(7)/mL, 3 hours at 37° C., 100 mW/cm^2 635-nm light (FIG. 13). The method, then:
as §1
as §5, with “overnight. […]” for “overnight.”

Take “New Methylene Blue N zinc chloride double salt [NMB]”: the “photodynamic killing of spores” value is recorded as “effective” in the test with B. thuringiensis spores and “effective” with B. cereus spores (100 μM, 1 hour).

`CN(C)c1ccc2nc3ccc(N)cc3[s+]c2c1.[Cl-]` [Azure A]: the “photodynamic killing of spores” value in the test with B. thuringiensis spores is listed as “effective”; in the test with B. cereus spores (100 μM, 1 hour), “effective”.

With `CN(C)c1ccc(C(=C2C=CC(=[N+](C)C)C=C2)c2ccccc2)cc1` [malachite green], the “photodynamic killing of spores” value in the test on B. cereus spores (100 μM, 1 hour) is listed as “effective”.

`CN(C)c1ccc2nc3ccc(=[N+](C)C)cc-3sc2c1` [methylene blue, Methylene Blue]: in the test on B. cereus spores (100 μM, 1 hour), the “photodynamic killing of spores” value was “effective”.

For `Cc1cc2nc3ccc(N(C)C)cc3[s+]c2cc1N.[Cl-]` [TBO, Toluidine Blue O], the “photodynamic killing of spores” value in the test with B. thuringiensis spores was “effective”. The “killing of spores as a function of concentration and light fluence” value with B. cereus spores (10 μM, 100 μM or 1 mM, 10 minutes, 100 mW/cm^2 635-nm light (FIG. 2)) is “improved, depending on both TBO concentration and light fluence”. The “most effective incubation period” value in the test on B. cereus spores (50 μM TBO (FIG. 6)) is at least 3 h. Also, in the test with B. cereus spores (50 μM TBO, 1 minute to 24 hours incubation (FIG. 6)), the “effect of incubation time on effectiveness of killing” value is listed as “effectiveness of killing increases with increasing incubation time”. Besides, in the test with B. cereus spores (100 μM, 10 minutes incubation, 100 mW/cm^2 635-nm light (FIG. 1)), the spores killed result was “greater than 99.9%”. The “killing of spores at the first lowest light dose tested” value in the test on B. cereus spores (1 mM dose, 10 minutes, 100 mW/cm^2 635-nm light (FIG. 2)) is reported as “complete killing”. The “dark toxicity to spores” value in the test with B. cereus spores (1 mM dose, 10 minutes, no light (FIG. 2)) is “significant dark toxicity”. Further, the killing of spores result with B. subtilis spores is listed as “more than 99.9%”. Also, the “sensitivity of vegetative cells to PDI” value in test [1] and in test [2] was “sensitive to PDI” each time.

With `CNc1ccc2nc3ccc(N)cc3[s+]c2c1.[Cl-]` [Azure C], the “photodynamic killing of spores” value in the test with B. thuringiensis spores is reported as “effective”; with B. cereus spores (100 μM, 1 hour) it was “effective”. Further, the “rank of potency among the dyes of FIG. 5” value with B. cereus spores (100 μM, 1 hour, 100 mW/cm^2 (FIG. 5)) is “most potent”.

Take `Cc1cc(N(C)C)cc2[s+]c3cc(N(C)C)cc(C)c3nc12.[Cl-]` [DMMB, 1,9-Dimethylmethylene Blue Chloride]: the “photodynamic killing of spores” value with B. thuringiensis spores is “effective”. Also, in the test on B. cereus spores (50 μM DMMB, 1 minute to 24 hours incubation, 670 nm light (FIG. 7)), the “effect of incubation time on effectiveness of killing” value is given as “effectiveness of killing increases with increasing incubation time”. Also, the “killing of spores in PDI” value in the test on B. cereus spores (DMMB, 670 nm light (FIG. 7)) is listed as “effective”.

Turning to `CNc1ccc2nc3ccc(=[N+](C)C)cc-3sc2c1.[Cl-]` [Azure B], the “photodynamic killing of spores” value in the test on B. thuringiensis spores was “effective”; in the test on B. cereus spores (100 μM, 1 hour), “effective”.

As to `Cc1cc2nc3cc(C)c(N)cc3[n+](-c3ccccc3)c2cc1N.[Cl-]` [safranin O, safranine O], the “photodynamic killing of spores” value with B. cereus spores (100 μM, 1 hour) is “effective”.

For the compound `CCN(CC)c1ccc2nc3ccc(N)cc3[n+](-c3ccccc3)c2c1.[Cl-]` [methylene violet 3RAX], the “photodynamic killing of spores” value with B. cereus spores (100 μM, 1 hour) is recorded as “effective”.
